# Laboratory results: patent publication US8158362B2, “Methods of diagnosing susceptibility to myocardial infarction and screening for an LTA4H haplotype” (deCODE Genetics ehf., priority 2005, dated 2012)
# Entries after “also recorded” stand apart in the source; their conditions may differ.
# Assays:
# [1] = Safety and adverse events, DG-031 crossover clinical trial; type: in vivo, human
# Source text: All study participants lived in the Reykjavik metropolitan area or its neighboring townships. All study participants were followed by the designated cardiologists at the University Hospital of Iceland, at their outpatient or private clinics, and all subjects had participated in a study on the genetics of MI. After the subject had given informed consent, a medical and medication history was completed, including co-morbidities, concomitant medications and specific details about the subject's cardiovascular history, including current status. All study participants were fasting and had not taken their medications prior to the study visit. Cardiologists examined the patients at all 8 visits and completed the case report forms. All blood was collected and processed immediately after sampling. All blood specimens used for the biomarker studies were processed within 2 hours of blood sampling.
# (§1) Patients (191 subjects) who met the study eligebility criteria were enrolled and randomized into 3 different dose-level groups: (1) 64 patients on 250 mg/day therapy with DG-031 (250 mg q.d.), vs placebo; (2) 64 patients on 500 mg/day therapy with DG-031 (250 mg b.i.d.) vs placebo; and (3) 63 patients on 750 mg/day therapy with DG-031 (250 mg t.i.d.) vs placebo. […] All patients received 3 tablets per day. Treatment periods, 4 weeks in duration each, were separated by a 2-week washout period. The placebo tablets were identical in shape, color, form and taste to the active tablets except that they contained no active drug ingredients. Treatment with DG-031 or placebo was in addition to the subject's standard care, including all medications and treatment plan as prescribed by the subject's cardiologist prior to enrollment. Due to early termination of 19 subjects (primarily related to unavailability due to travel), 11 were replaced prior to enrollment closure. Thus, a total of 191 subjects were enrolled, with 172 completing all 8 visits or 8 patients (4.4%) short of target.
# Lp-PLA2 = assay: Lp-PLA2, DG-031 crossover clinical trial; type: in vivo, human
# Description: (§2) In the short term study, changes in levels of biomarkers that are associated with risk of MI were scored as evidence of changes in the risk of MI.
# (§3) Patients (191 subjects) who met the study eligebility criteria were enrolled and randomized into 3 different dose-level groups: (1) 64 patients on 250 mg/day therapy with DG-031 (250 mg q.d.), vs placebo; (2) 64 patients on 500 mg/day therapy with DG-031 (250 mg b.i.d.) vs placebo; and (3) 63 patients on 750 mg/day therapy with DG-031 (250 mg t.i.d.) vs placebo. […] All patients received 3 tablets per day. Treatment periods, 4 weeks in duration each, were separated by a 2-week washout period. […]
# (§4) All data were analyzed according to a pre-established analysis plan and by intention-to-treat. […] The difference between DG-031 and placebo treatment was the primary outcome, assessed separately for each of the biomarkers. […]
# (§5) Apart from measurements in plasma, LTB4 and MPO were also measured in whole blood preparations ex vivo following ionomycin-activation of leukocytes, using ELISA and mass spectrometry. […] On the log scale the adjustment was based on a linear model, with coefficients determined empirically at time of blind review. Several tertiary markers were also measured including: IL-6, IL-12p40, TNFα, MMP-9, sICAM, sVCAM, P-selectin, E-selectin, MCP-1 and oxidised LDL.
# urinary leukotriene E4 = assay: Urine LTE4, DG-031 crossover clinical trial; type: in vivo, human; settings: highest dosage of DG-031 (750 mg/day); nominal p=0.00002
# Description: as §2, §3, §4, §5
# [2] = test system: LTB4 produced by ionomycin-activated neutrophils; assay: LTB4 production in ionomycin-activated whole blood/neutrophils ex vivo, DG-031 placebo-controlled crossover clinical trial; set-up: species or system human
# Description: as §2, §1
# All data were analyzed according to a pre-established analysis plan and by intention-to-treat. Hypotheses were tested at a two-sided nominal significance level of 0.05. Each arm of the study, as well as pooled sets (combining dose levels), was considered for the primary analysis. Each such set is a standard AB/BA cross-over design and in the primary analysis of efficacy, the levels of biomarkers of MI risk at the end of the treatment periods (visits 4 and 7) were used as primary response variables. The difference between DG-031 and placebo treatment was the primary outcome, assessed separately for each of the biomarkers. […]
# (§6) Apart from measurements in plasma, LTB4 and MPO were also measured in whole blood preparations ex vivo following ionomycin-activation of leukocytes, using ELISA and mass spectrometry. […]
# C-reactive protein (CRP) = assay: Serum CRP, DG-031 crossover clinical trial incl. carry-over test; type: in vivo, human
# Description: as §2, §1
# All data were analyzed according to a pre-established analysis plan and by intention-to-treat. Hypotheses were tested at a two-sided nominal significance level of 0.05. Each arm of the study, as well as pooled sets (combining dose levels), was considered for the primary analysis. Each such set is a standard AB/BA cross-over design and in the primary analysis of efficacy, the levels of biomarkers of MI risk at the end of the treatment periods (visits 4 and 7) were used as primary response variables. The difference between DG-031 and placebo treatment was the primary outcome, assessed separately for each of the biomarkers. Treatment effect was tested using a two-sample t-test on the period differences for suitably transformed response variables, under an assumption of normality of the transformed data. We report treatment effect as one half of the observed mean differences in the two-sample t-test, with a 95% CI. No pre-tests for carry-over effect were performed as a part of the primary analysis. Tests for carry-over were done and are reported separately from results of primary analysis. As was prespecified for the primary analysis, a simple Bonferroni-adjustment based on 10 biomarkers for the primary objective for the pooled set of the two highest doses, was used to report the outcome of the primary objective. All p-values reported are nominal.
# To cancel out potential seasonal effects, carry-over effects were also studied with two-sample t-tests that compare measurements of the AB (drug/placebo) group with the measurements of the BA (placebo/drug) group. To estimate the effect of the drug at visit 3 for the AB group, (v3−v2), with v3 and v2 denoting, respectively, measurements at visit 3 and visit 2, was used. Similarly (v4−v2) and (v5−v2) were used to estimate effects at visits 4 and 5. For estimating the effect at visit 6, [(v6−v2)+(v3−v2)] was used. Note that v6 from the BA group includes the drug effect after two weeks which cancels the drug effect at visit 3 from the AB group. Similarly, [(v7−v2)+(v4−v2)] was used to estimate the effect at visit 7. […]
# as §6
# [3] = test system: IL-6, IL-12p40, TNFα, MMP-9, sVCAM, P-selectin, E-selectin, MCP-1 and oxidised LDL; assay: Other tertiary markers (IL-6, IL-12p40, TNFα, MMP-9, sVCAM, P-selectin, E-selectin, MCP-1, oxidised LDL), DG-031 crossover clinical trial; type: in vivo, human; settings: DG-031 vs placebo
# Description: as §2, §3, §4, §5
# [4] = test system: myeloperoxidase (MPO) in whole blood; assay: MPO production in ionomycin-activated whole blood ex vivo, DG-031 crossover clinical trial; set-up: species or system human
# Description: as §2
# as §1, with “Due to early termination of 19 subjects (primarily related to unavailability due to travel), 11 were replaced prior to enrollment closure. Thus, a total of 191 subjects were enrolled, with 172 completing all 8 visits or 8 patients (4.4%) short of target.” left out
# as §4, §6
# [5] = 750 mg/day dose; healthy volunteers and patients with asthma (Dahlen et al., Hamilton et al.); cited from earlier work
# serum amyloid A = assay: Serum amyloid A (SAA), DG-031 crossover clinical trial incl. carry-over test; type: in vivo, human
# Description: as §2
# as §1, with “Due to early termination of 19 subjects (primarily related to unavailability due to travel), 11 were replaced prior to enrollment closure. Thus, a total of 191 subjects were enrolled, with 172 completing all 8 visits or 8 patients (4.4%) short of target.” left out
# as §4, §6
# [6] = differences between visit 2 and 5, 500 and 750 mg/day vs placebo
smiles,measurement,setting,value
"O=C(O)[C@@H](c1ccc(OCc2ccc3ccccc3n2)cc1)C1CCCC1 [DG-031, (R)-(+)-alpha-cyclopentyl-4-(2-quinolinylmethoxy)-Benzeneacetic acid]","dizziness, number of patients reporting","[1]; active drug (any dose) vs none on placebo, p=0.032",6 patients
same,liver transaminases,[1]; active drug vs placebo,no difference was detected
same,serious adverse events,[1]; between treatment groups or dose arms,no difference in serious adverse events
same,overall safety and tolerability,"[1]; clinical trial, 250-750 mg/day",safe and well tolerated
same,effect on Lp-PLA2,Lp-PLA2; 2 lower doses (250 mg/day and 500 mg/day),not significant
same,increase in Lp-PLA2,"Lp-PLA2; highest dose of DG-031 (750 mg/day), nominal p=0.0056",9%
same,increase in urine levels of LTE4,urinary leukotriene E4,27%
same,maximum reduction in LTB4 production by ionomycin-activated neutrophils ex vivo,"[2]; 750 mg/day DG-031 vs placebo, 4-week treatment, MI patients carrying at-risk FLAP/LTA4 hydrolase haplotypes, nominal p=0.0026",26%
same,"carry-over effect from treatment phase to placebo phase, LTB4",[2]; [6],No carry over effects were observed
same,levels of LTB4 produced by ionomycin-activated neutrophils ex vivo (primary efficacy endpoint),"[2]; pooled set of 500 mg and 750 mg arms, nominal p=0.0042, significant after correction for multiple testing",reduces levels of LTB4
same,"carry-over / persistent effect after discontinuation, CRP","C-reactive protein (CRP); differences between visit 2 and 5, 500 and 750 mg/day vs placebo, p=0.017",evidence of a persistent effect; also recorded: marked carry over effects were observed; also recorded: seems to persists until visit 7
same,further CRP reduction in subjects already on statin therapy,"C-reactive protein (CRP); short term study, LT inhibitor added to statin therapy",20-30%
same,reduction of serum levels of CRP,C-reactive protein (CRP); summary of the clinical trial,approximately 25%
same,reduction of CRP,"C-reactive protein (CRP); visit 5 (after 2-week washout), two higher doses, p=0.017",about 25%
same,level of CRP during treatment,"C-reactive protein (CRP); visits 3 (2 weeks on therapy) and 4 (4 weeks on therapy), two higher doses","dropped at visits 3 and 4, but not significantly"
same,effect on other tertiary markers,[3],no effects were observed
same,maximum reduction in MPO production (whole blood),"[4]; 750 mg/day DG-031 vs placebo, nominal p=0.023",13%
same,"carry-over effect from treatment phase to placebo phase, MPO",[4]; [6],No carry over effects were observed
same,tolerability in previous phase I-III human studies,[5],well tolerated
same,"carry-over / persistent effect after discontinuation, SAA","serum amyloid A; differences between visit 2 and 5, 500 and 750 mg/day vs placebo, p=0.051",evidence of a persistent effect
same,reduction of serum levels of SAA,serum amyloid A; summary of the clinical trial,approximately 25%
